# In PMC7520498, “Chemical Constituents from the Whole Plant of Cuscuta reflexa” (Natural Products and Bioprospecting, 2020):
# Experiments:
# [1] = molecular target: T1, porcine pancreatic lipase (PPL) (Sus scrofa, UniProt P00591); experiment: In vitro porcine pancreatic lipase inhibition assay (p-NPB substrate); type: biochemical
# T1 sequence (P00591 1-450): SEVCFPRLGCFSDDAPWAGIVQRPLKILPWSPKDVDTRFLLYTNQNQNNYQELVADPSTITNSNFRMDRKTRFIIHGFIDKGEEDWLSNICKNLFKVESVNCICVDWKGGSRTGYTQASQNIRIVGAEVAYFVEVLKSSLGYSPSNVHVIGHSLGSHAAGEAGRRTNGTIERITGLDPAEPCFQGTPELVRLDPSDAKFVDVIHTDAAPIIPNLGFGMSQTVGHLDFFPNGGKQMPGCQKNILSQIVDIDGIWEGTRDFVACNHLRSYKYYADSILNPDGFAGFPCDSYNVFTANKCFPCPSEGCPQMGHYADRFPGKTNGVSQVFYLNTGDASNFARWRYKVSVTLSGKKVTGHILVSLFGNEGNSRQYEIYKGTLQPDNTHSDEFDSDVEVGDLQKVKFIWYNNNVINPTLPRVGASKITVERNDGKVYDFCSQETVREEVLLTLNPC
# Method: For lipase inhibition tests of each compound, porcine pancreatic lipase was used. p-Nitrophenyl butyrate (p-NPB) was used as the substrate. First, 5 μL of the lipase solution (40 U/mL) in Tris–HCl buffer (100 mM Tris–HCl, 5 mM CaCl2; pH 7.0) was added to a 96-well microtiter plate. Each compound in 1 μL of DMSO and 184 μL of Tris–HCl buffer were added and mixed with the enzyme buffer to start the reaction. After incubation at 37 °C for 15 min, 10 μL of the substrate solution (10 mM p-NPB in dimethyl formamide) was added. The enzymatic reaction was carried out for 15 min at 37 °C. The hydrolysis of p-NPB to p-nitrophenol was monitored at 400 nm using a spectrophotometer.
# [2] = test system: rabbit platelet aggregation induced by collagen; experiment: Rabbit platelet aggregation induced by collagen; type: cell-based; conditions: collagen 4 μg/mL; for IC50: Oryctolagus cuniculus, Platelet, read-out: IC50 against rabbit platelet aggregation induced by collagen
# Method: (§1) Compounds 1–15 and 1a were also evaluated for their inhibitory activity against rabbit platelet aggregation induced by thrombin (1 U/mL), platelet-activating factor (PAF, 0.4 μg/mL), arachidonate (AA, 0.5 mM), or collagen (4 μg/mL).
# (§2) The inhibitory effects of the compounds against rabbit platelet aggregation induced by thrombin (1 U/mL), PAF (0.4 μg/mL), AA (0.5 mM), or collagen (4 μg/mL) were evaluated according to published methods.
# [3] = test system: rabbit platelet aggregation induced by arachidonate (AA); experiment: Rabbit platelet aggregation induced by arachidonate (AA); type: cell-based; conditions: Oryctolagus cuniculus, AA 0.5 mM
# Method: as §1, §2
compound,measurement,setting,value
7-oxo-β-sitosterol 3-O-β-D-glucopyranoside [Compound 4],PPL inhibition,[1]; at a concentration of 100 μg/mL,12 ± 2%
"Cc1cc(OC2OC(COC(=O)C=Cc3ccc(O)cc3)C(O)C(O)C2O)cc(=O)o1 (centres unmarked) [Compound 1, cuscutaroside A]",IC50,[2],291 ± 47.9 µg/mL
CC(=O)Oc1ccc(/C=C/C(=O)OC[C@H]2O[C@@H](Oc3cc(C)oc(=O)c3)[C@H](OC(C)=O)[C@@H](OC(C)=O)[C@@H]2OC(C)=O)cc1 [Compound 1a],IC50,[3]; read-out: IC50 against rabbit platelet aggregation induced by AA,72.6 ± 10.5 µg/mL
same,IC50,[2],63.8 ± 4.4 µg/mL
"CCC(CCC(C)C1CCC2C3C(OC)C=C4CC(OC5OC(CO)C(O)C(O)C5O)CCC4(C)C3CCC12C)C(C)C (stereo not drawn) [Compound 3, 7β-methoxy-β-sitosterol 3-O-β-glucopyranoside]",IC50,"[1]; porcine pancreatic lipase, p-NPB substrate, read-out: PPL inhibitory activity IC50 (converted)",111 µM
"CC(=O)Oc1ccccc1C(=O)O [aspirin, reference compound]",inhibition at 40 µg/mL,[3]; at 40 μg/mL,88.1 ± 1.1%
same,IC50,[2],33.3 ± 1.3 µg/mL
scrophenoside B [Compound 8],IC50 against rabbit platelet aggregation induced by collagen,[2],180.5 ± 6.7 µg/mL
